TGI data for 15 compounds are collected here from PubChem BioAssay (NCI).

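All cell lines were grown in 96-well plates and treated with compound for 48 hours. TGI marks complete inhibition of growth.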 A value given as a limit tells only on which side of the number the result lay.

Among the test systems are HCC-2998 colon; SNB-19 CNS; TK-10 renal; SF-539 CNS; UACC-257 melanoma; MOLT-4 leukemia; RXF 393 renal; IGROV1 ovarian; M14 melanoma; RPMI-8226 leukemia.
Assay in all cases: NCI tumour cell line growth inhibition, 48 h

Regarding `CCOC(=O)C(/C=N/C(N)=S)=C(/O)c1ccccc1`, the TGI in the test with HCC-2998 colon, in the test with SNB-19 CNS, in the test with TK-10 renal, with SF-539 CNS, in the test with UACC-257 melanoma and in the test with MOLT-4 leukemia was above 100 µM in each case. Moreover, the TGI in the test with RXF 393 renal, with IGROV1 ovarian and in the test on M14 melanoma was above 100 µM throughout.
Consider `CCOC(=O)C(C(=O)OCC)C(=S)NC1OC(COC(C)=O)C(OC(C)=O)C(OC(C)=O)C1OC(C)=O` (configuration not stated), for which the TGI with HCC-2998 colon, with SNB-19 CNS, in the test on SF-539 CNS, with RPMI-8226 leukemia, in the test with UACC-257 melanoma and with MOLT-4 leukemia was above 100 µM in each case. In addition, the TGI in the test with RXF 393 renal, in the test on IGROV1 ovarian and in the test on M14 melanoma was above 100 µM each time.
Consider `O=CC1C(=O)Nc2nc3ccccc3n2C1c1ccccc1` (configuration not stated), for which the TGI with TK-10 renal worked out at 71.6 µM; in the test on SF-539 CNS, 44.6 µM; in the test on RPMI-8226 leukemia it was 70.4 µM; with UACC-257 melanoma, 33.3 µM; in the test with MOLT-4 leukemia, 5.73 µM; in the test on RXF 393 renal it was 16 µM. The TGI in the test with IGROV1 ovarian worked out at 27.3 µM; in the test on M14 melanoma, 34 µM.
`O=C(Nc1ccccn1)c1cc2c(cc1Cl)Sc1nccn1S2(=O)=O`: the TGI in the test on HCC-2998 colon is 30.9 µM; in the test on SNB-19 CNS it was above 100 µM; with TK-10 renal, above 100 µM; in the test with RPMI-8226 leukemia, above 100 µM; in the test on UACC-257 melanoma, above 100 µM; in the test on MOLT-4 leukemia it was above 100 µM. For the same compound, the TGI in the test on RXF 393 renal is 93.9 µM; in the test on IGROV1 ovarian, 76.4 µM; in the test on M14 melanoma, above 100 µM.
Consider `CN1CCN2CCN(C)CCN(CC1)CC2`, for which the TGI with SNB-19 CNS, in the test on TK-10 renal, with SF-539 CNS, in the test with RPMI-8226 leukemia, with UACC-257 melanoma and in the test with MOLT-4 leukemia was above 100 µM throughout. For the same compound, the TGI with RXF 393 renal, in the test on IGROV1 ovarian and with M14 melanoma was above 100 µM throughout.
On to `C[C@@H](Br)[C@@H]1CC[C@H]2c3[nH]c4ccccc4c3CCN2C1`, for which the TGI is 31.3 µM with HCC-2998 colon; 43.9 µM with SNB-19 CNS; above 100 µM with TK-10 renal; 37.4 µM in the test on RPMI-8226 leukemia; above 100 µM with UACC-257 melanoma; 49.7 µM with MOLT-4 leukemia. Moreover, the TGI turned out to be 61.5 µM in the test on RXF 393 renal, 77.8 µM in the test with IGROV1 ovarian and 44 µM in the test with M14 melanoma.
As for `O=C(CN1CCOCC1)c1ccc2c(c1)oc(=O)n2CCN1CCCCC1`, the TGI in the test with SNB-19 CNS, in the test with TK-10 renal, in the test with SF-539 CNS, in the test on RPMI-8226 leukemia, with UACC-257 melanoma and in the test on MOLT-4 leukemia was above 100 µM in each case. Also, the TGI with RXF 393 renal, with IGROV1 ovarian and with M14 melanoma was above 100 µM throughout.
For the compound `COc1cc(C2C(Cl)C(=O)N2NC(=O)c2ccccc2O)cc(OC)c1OC` (configuration not stated), the TGI with SNB-19 CNS is above 10 µM; in the test with TK-10 renal it was above 10 µM; in the test on SF-539 CNS it was above 10 µM; in the test on UACC-257 melanoma, 7.46 µM; in the test with MOLT-4 leukemia it was above 10 µM; in the test on RXF 393 renal, above 10 µM. Moreover, the TGI in the test on IGROV1 ovarian and with M14 melanoma was above 10 µM in each case.
`CC(=O)Nc1ccc2cc3c(nc2n1)c1cccnc1n3S(=O)(=O)c1ccccc1`: the TGI with HCC-2998 colon, in the test on SNB-19 CNS, in the test with TK-10 renal, with RPMI-8226 leukemia, with UACC-257 melanoma and with MOLT-4 leukemia was above 100 µM in each case. In addition, the TGI in the test on RXF 393 renal, in the test on IGROV1 ovarian and in the test on M14 melanoma was above 100 µM in each case.
On to `COc1ccc(-c2c3c(n(C4OC(COC(C)=O)C(OC(C)=O)C(OC(C)=O)C4OC(C)=O)c(=S)c2C#N)CCCC3)cc1` (configuration not stated), for which the TGI with HCC-2998 colon, in the test on SNB-19 CNS, in the test with TK-10 renal, with SF-539 CNS, in the test on UACC-257 melanoma and with MOLT-4 leukemia was above 100 µM each time. Besides, the TGI in the test on RXF 393 renal was 88.7 µM; in the test on IGROV1 ovarian, above 100 µM; in the test on M14 melanoma it was above 100 µM.
Take `CC1(C)C/C=C\CCC(O)C(O)CCC(C)(C)C1=O` (configuration not stated): the TGI in the test on HCC-2998 colon, with SNB-19 CNS, with TK-10 renal, with SF-539 CNS, in the test with RPMI-8226 leukemia and with UACC-257 melanoma was above 100 µM in each case. Also, the TGI in the test on MOLT-4 leukemia, with RXF 393 renal and with IGROV1 ovarian was above 100 µM each time.
Take `ClC1(Cl)C2CCOC21n1cnc2ccccc21` (configuration not stated): the TGI with HCC-2998 colon, in the test with SNB-19 CNS, with SF-539 CNS, in the test on RPMI-8226 leukemia, in the test on MOLT-4 leukemia and in the test on RXF 393 renal was above 100 µM in each case. The TGI in the test with IGROV1 ovarian and with M14 melanoma was above 100 µM each time.
In the case of `CN1CCN(C(=S)N(C(=O)c2ccc(Cl)cc2)C2CCCCC2)CC1`, the TGI in the test on HCC-2998 colon, with SNB-19 CNS, in the test with TK-10 renal, in the test with RPMI-8226 leukemia, in the test on UACC-257 melanoma and in the test with MOLT-4 leukemia was above 100 µM each time. In addition, the TGI in the test with RXF 393 renal, with IGROV1 ovarian and in the test with M14 melanoma was above 100 µM in each case.
As to `C/C(=N\Nc1nc2ccccc2[nH]1)c1ccc2ccccc2n1`, the TGI in the test on SNB-19 CNS came to 15.9 µM; in the test on TK-10 renal, 13.2 µM; in the test on SF-539 CNS, 20.1 µM; in the test on RPMI-8226 leukemia, 3.15 µM; with UACC-257 melanoma, 24.9 µM; with MOLT-4 leukemia, 2.64 µM. Further, the values for the TGI in the test on RXF 393 renal, in the test on IGROV1 ovarian and in the test on M14 melanoma were 13.5 µM, 8.1 µM and 6.47 µM, respectively.
`CNC(=S)c1nnsc1N`: the TGI in the test on HCC-2998 colon, in the test with TK-10 renal, in the test on SF-539 CNS, in the test on RPMI-8226 leukemia, in the test with UACC-257 melanoma and with MOLT-4 leukemia was above 100 µM in each case. For the same compound, the TGI with RXF 393 renal, in the test with IGROV1 ovarian and in the test with M14 melanoma was above 100 µM throughout.
